From ChEMBL document CHEMBL1201862, “PubChem BioAssay data set” (2004)
The source made the active and inactive calls.

What was measured:
[1] = molecular target: T1, Short transient receptor potential channel 4 (Mus musculus, UniProt Q9QUQ5); test: mouse TRPC4 channel inhibitors, dose response, cell-based, HEK293 TRPC4/mu-opioid, Fluo-4 calcium (AID 434942); format: functional;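 further: potency of inhibitors blocking the TRPC4 calcium response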
T1 sequence (Q9QUQ5 whole entry): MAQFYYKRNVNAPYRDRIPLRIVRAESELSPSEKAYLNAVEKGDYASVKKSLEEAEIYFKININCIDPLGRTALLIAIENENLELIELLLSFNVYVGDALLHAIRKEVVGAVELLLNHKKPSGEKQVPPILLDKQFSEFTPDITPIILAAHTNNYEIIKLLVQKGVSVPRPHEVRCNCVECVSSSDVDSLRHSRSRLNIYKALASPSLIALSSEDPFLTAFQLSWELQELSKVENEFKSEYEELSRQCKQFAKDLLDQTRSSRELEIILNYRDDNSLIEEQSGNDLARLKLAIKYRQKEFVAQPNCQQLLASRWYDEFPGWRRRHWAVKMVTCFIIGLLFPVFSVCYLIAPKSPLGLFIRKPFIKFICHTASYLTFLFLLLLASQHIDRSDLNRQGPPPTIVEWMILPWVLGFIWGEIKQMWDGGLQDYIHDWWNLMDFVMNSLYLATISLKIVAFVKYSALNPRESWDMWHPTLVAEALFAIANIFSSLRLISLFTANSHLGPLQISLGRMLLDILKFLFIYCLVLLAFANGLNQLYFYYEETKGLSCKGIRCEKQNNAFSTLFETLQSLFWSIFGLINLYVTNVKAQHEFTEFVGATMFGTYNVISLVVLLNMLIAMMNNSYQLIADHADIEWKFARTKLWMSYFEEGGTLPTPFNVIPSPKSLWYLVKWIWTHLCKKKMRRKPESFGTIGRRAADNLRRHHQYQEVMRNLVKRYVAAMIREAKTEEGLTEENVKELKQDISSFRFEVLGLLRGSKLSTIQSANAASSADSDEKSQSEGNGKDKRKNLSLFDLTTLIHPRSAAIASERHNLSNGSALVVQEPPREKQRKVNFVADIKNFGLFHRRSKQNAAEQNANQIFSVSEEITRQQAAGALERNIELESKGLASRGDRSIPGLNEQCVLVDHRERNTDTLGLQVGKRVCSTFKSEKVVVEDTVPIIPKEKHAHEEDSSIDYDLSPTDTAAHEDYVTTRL

[2] = Luminescence Cell-Based Dose Response HTS to Identify Inhibitors of 5'UTR Stem-Loop Driven Prion Protein mRNA Translation in H4 Neuroglioblastoma Cells. [Related pubchem assays: 1827 (Project Summary), 1813 (Primary HTS)]; format: functional
[3] = inhibitors of SNCA 5'UTR-driven reporter translation, confirmation, H4 neuroglioma cells, luminescence (AID 1988); format: functional, cell-based
[4] = inhibitors of firefly luciferase expression or activity, dose response, H4 neuroglioma cells, luminescence (AID 1990); format: functional, cell-based
[5] = microbe, parasite or virus in culture; format: functional; conditions: Mycobacterium tuberculosis
[6] = molecular target: T2, Microphthalmia-associated transcription factor (Homo sapiens, UniProt O75030); test: TRPM1 promoter luciferase signal decrease, dose response, MITF inhibitor project, cell-based, SK-MEL-5, cherry-picked, set 3 (AID 493073); format: functional
T2 sequence (O75030 whole entry): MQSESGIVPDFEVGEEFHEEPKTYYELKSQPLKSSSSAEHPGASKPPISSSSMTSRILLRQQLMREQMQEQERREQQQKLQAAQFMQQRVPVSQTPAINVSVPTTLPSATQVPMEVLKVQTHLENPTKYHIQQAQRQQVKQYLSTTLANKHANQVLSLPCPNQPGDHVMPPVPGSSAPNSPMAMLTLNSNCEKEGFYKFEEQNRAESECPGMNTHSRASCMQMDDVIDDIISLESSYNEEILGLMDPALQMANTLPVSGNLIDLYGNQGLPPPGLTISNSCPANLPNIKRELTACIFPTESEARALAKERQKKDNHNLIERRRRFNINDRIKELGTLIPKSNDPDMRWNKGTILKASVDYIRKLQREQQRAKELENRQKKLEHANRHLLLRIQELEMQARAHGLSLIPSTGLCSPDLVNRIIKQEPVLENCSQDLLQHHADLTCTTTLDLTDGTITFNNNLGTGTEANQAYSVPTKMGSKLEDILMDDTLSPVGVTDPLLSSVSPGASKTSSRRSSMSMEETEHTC

[7] = molecular target: T3, Polyadenylate-binding protein 1 (Homo sapiens, UniProt P11940); test: PABP1 MLLE–PAM2 interaction inhibitors, dose response, miRNA deadenylation inhibitor project, biochemical, fluorescence polarization, Cy5-PAM2 peptide, secondary (AID 602260); format: functional; conditions: read-out: IC50_Mean
[8] = molecular target: T3, Polyadenylate-binding protein 1; test: PABP1 MLLE–PAM2 binding inhibitor potency, dose response, biochemical, fluorescence polarization, FITC-PAM2 peptide (AID 602259); format: functional; conditions: read-out: IC50_Mean
[9] = CEM21 lymphoblast cell cytotoxicity, dose response, cytotoxicity control for viral fusion inhibitor project, CellTiter-Glo luminescence, cherry-picked (AID 652042); format: functional, cell-based;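 further: potency for signal decrease meaning cytotoxicity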
[10] = inhibitors of clade B AD8 Env fusion, dose response, cell-based, cherry-pick (AID 652062); format: functional;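 further: luciferase signal from cell-cell fusion driven by HIV-1 clade B AD8 Env; potency is for inhibitors of fusion seen as a drop in luminescence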
[11] = off-target signal loss in HeLa-CEM21 co-culture – HeLa F-luc CTL cells, cherry-picked, counter-screen for HIV-1 Env fusion inhibitor project, dose response (AID 652040); format: functional, cell-based;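 further: potency for signal decrease marking cytotoxic or nonspecific inhibition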
[12] = ZM109 Env clade C HIV-1 fusion inhibitors, dose response, HeLa effector, CEM target cells, luciferase, cherry-pick (AID 652058); format: functional, cell-based
[13] = inhibitors of HIV Env-driven cell fusion, dose response, cherry-pick (AID 652057); format: functional, cell-based
[14] = inhibitors of intracellular T. cruzi replication, confirmation, NIH3T3 host cells, beta-gal luminescence (AID 2044); format: functional, cell-based;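 further: intracellular parasites grown in NIH/3T3 mouse fibroblasts as host cells; luminescent beta-galactosidase reporter signal from transgenic T. cruzi replicating inside host cells; inhibitors lower the luminescence signal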
[15] = cytotoxicity toward NIH3T3 fibroblasts, dose response, counter-screen, cell-based, ATP luminescence, mouse fibroblasts (AID 2010); format: functional;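 further: cells exposed to compound for about 90 hours before reading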
Cytochrome P450 2C9 = Cytochrome P450 2C9 (Homo sapiens, UniProt P11712)
Cytochrome P450 3A4 = Cytochrome P450 3A4 (Homo sapiens, UniProt P08684);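 further: CYP3A4 tested as one member of a cytochrome P450 panel screen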
Cytochrome P450 2C19 = Cytochrome P450 2C19 (Homo sapiens, UniProt P33261); test: Cytochrome panel assay with activity outcomes. Panel member name: p450-cyp2c19 Compounds with AC50 equal or less than 10 uM are considered active; format: functional; conditions: read-out: AC50
HEK293 = test: cells; conditions: Homo sapiens;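 further: cells exposed to compound for 14 hours overnight before viability readout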
Tumor necrosis factor = Tumor necrosis factor (Homo sapiens, UniProt P01375); test: TNFa-triggered NF-kB activation inhibitors, SAR follow-up, cell-based, revised (AID 2337); format: functional
[16] = intracellular Trypanosoma cruzi inhibitors in host cells – cell-based, plate reader, cherry-pick samples, set 3, dose response (AID 651818); format: functional;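 further: compounds incubated with infected cells for about four days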
Streptococcus = test: Group A Streptococcus viability loss, dose response, counter-screen for streptokinase expression inhibitor project, luminescence, BacTiterGlo (AID 1915); format: functional, organism-based;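 further: potency for reduction of bacterial viability or growth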
Streptokinase A = molecular target: T4, Streptokinase A (Streptococcus pyogenes serotype M1, UniProt P10520); test: S. pyogenes streptokinase expression inhibitors, potency, dose response, plasminogen activation absorbance, OD405 (AID 1914); format: functional, Streptococcus pyogenes M1 GAS;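 further: secreted streptokinase activity via plasminogen activation per viability signal from cell pellet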
T4 sequence (P10520 whole entry): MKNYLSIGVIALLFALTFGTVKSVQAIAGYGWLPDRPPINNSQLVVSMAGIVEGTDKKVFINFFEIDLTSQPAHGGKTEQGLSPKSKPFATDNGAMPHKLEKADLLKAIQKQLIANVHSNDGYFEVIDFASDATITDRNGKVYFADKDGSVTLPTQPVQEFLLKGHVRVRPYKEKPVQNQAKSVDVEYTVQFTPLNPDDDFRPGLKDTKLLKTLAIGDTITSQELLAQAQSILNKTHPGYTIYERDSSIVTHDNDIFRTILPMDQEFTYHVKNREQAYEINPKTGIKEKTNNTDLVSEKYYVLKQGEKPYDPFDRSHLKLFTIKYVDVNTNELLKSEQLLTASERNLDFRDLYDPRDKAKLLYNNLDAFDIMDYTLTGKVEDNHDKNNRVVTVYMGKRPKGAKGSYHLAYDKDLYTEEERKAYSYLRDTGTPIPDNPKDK

[17] = test system: Streptococcus sp. 'group A'; test: growth inhibition of control SK(-) GAS strain, dose response, counter-screen for streptokinase expression inhibitor project, luminescence, kanamycin, BacTiterGlo, confirmation (AID 1900); format: functional, organism-based
Cytochrome P450 1A2 = molecular target: T5, Cytochrome P450 1A2 (Homo sapiens, UniProt P05177);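 further: PubChem cytochrome P450 panel assay, CYP1A2 panel member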
T5 sequence (P05177 whole entry): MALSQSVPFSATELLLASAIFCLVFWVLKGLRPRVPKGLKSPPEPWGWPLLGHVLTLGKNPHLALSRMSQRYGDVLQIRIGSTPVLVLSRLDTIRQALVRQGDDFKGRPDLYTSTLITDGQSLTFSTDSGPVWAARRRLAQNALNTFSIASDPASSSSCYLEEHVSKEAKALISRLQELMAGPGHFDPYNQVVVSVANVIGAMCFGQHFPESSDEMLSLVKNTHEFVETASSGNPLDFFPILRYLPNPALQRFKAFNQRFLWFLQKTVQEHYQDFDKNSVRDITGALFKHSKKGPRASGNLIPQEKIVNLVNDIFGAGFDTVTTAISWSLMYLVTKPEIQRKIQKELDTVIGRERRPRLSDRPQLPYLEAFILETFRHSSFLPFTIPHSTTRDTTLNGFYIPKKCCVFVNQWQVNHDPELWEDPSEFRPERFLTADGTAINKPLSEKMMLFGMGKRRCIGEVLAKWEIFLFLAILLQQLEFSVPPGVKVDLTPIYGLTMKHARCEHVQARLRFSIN

T3 sequence (P11940 whole entry): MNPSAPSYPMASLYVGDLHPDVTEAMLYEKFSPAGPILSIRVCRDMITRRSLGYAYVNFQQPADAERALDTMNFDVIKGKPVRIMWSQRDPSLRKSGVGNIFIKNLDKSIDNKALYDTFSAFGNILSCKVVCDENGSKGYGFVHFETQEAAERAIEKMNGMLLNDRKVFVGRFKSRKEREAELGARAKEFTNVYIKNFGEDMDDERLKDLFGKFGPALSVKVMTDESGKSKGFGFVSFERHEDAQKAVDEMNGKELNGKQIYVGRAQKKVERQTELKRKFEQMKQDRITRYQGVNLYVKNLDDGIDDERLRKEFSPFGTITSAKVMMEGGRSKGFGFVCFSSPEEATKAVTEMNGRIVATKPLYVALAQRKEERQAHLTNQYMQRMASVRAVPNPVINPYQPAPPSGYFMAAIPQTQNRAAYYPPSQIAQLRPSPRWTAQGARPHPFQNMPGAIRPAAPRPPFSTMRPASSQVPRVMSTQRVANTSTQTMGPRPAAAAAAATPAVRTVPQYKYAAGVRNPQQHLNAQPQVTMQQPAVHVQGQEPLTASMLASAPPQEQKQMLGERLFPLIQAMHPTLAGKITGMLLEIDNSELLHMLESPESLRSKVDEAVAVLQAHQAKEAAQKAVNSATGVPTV
Cytochrome P450 2C9, sequence (P11712 whole entry): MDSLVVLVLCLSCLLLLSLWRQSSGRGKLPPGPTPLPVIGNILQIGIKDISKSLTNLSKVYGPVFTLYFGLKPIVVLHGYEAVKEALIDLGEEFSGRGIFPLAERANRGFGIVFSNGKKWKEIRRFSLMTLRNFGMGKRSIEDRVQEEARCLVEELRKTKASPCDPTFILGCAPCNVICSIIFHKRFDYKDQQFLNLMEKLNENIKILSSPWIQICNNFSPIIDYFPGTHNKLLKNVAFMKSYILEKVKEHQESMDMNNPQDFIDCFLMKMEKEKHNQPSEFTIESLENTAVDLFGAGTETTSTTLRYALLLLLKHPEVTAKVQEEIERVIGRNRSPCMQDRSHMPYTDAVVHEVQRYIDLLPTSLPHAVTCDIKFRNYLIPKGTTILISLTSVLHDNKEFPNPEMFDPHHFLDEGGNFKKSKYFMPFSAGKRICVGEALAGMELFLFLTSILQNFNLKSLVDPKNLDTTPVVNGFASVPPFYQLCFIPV
Cytochrome P450 3A4, sequence (P08684 whole entry): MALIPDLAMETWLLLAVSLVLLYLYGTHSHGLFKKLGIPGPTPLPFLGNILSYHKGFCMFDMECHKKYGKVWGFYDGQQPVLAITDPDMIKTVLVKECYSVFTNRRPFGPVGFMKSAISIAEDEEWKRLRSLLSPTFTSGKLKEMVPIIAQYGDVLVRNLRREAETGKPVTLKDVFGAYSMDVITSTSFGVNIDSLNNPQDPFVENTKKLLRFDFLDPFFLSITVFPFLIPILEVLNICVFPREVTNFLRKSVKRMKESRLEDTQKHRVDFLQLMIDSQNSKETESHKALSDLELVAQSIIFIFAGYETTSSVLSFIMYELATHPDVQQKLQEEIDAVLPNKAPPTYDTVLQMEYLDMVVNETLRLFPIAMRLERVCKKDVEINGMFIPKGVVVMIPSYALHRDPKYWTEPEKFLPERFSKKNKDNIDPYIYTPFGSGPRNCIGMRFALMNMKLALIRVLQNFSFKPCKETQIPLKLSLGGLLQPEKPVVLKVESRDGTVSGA
Tumor necrosis factor, sequence (P01375 whole entry): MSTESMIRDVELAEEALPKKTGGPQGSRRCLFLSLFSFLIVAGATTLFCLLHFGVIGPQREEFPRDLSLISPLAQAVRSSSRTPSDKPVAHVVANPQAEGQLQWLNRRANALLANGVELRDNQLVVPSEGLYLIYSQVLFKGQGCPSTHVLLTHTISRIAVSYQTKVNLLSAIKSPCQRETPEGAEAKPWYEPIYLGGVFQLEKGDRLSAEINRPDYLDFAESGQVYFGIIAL
Cytochrome P450 2C19, sequence (P33261 whole entry): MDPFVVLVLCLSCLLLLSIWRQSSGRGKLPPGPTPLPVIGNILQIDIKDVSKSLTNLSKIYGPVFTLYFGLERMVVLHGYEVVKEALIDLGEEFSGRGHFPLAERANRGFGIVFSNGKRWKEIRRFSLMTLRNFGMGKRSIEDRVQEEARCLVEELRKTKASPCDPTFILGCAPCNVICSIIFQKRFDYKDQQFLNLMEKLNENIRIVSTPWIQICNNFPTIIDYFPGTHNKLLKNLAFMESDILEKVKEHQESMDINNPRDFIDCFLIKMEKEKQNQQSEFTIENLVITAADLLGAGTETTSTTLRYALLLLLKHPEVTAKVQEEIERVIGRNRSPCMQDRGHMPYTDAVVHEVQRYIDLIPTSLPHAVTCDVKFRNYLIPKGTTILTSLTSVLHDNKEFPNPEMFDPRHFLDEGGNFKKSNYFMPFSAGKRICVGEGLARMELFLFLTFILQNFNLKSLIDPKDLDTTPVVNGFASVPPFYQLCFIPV

NC1=NC2=C(CCCC2)C2(CCCCC2)S1
EC50 [1]: 1.19 µM (active)
EC50 [2]: 34.5 µM (active)
EC50 [3]: 9.28 µM (active)
EC50 [4]: > 120 µM (not active)

CC(C)(C)c1ccc(C2C3=C(CCCC3=O)N=C3C2=C(O)c2ccccc23)cc1 (configuration not stated)
CC50 [5]: > 40 µM (active)

Cc1nc2nc(C)c(NS(=O)(=O)c3ccc4c(c3)CCCC4)c(O)n2n1
AC50 [6]: 136 µM (active)

O=C(O)c1cc2ccccc2c(N=Nc2cccnc2)c1O
AC50 [6]: 11.4 µM (active)

Cc1c(N(C)S(=O)(=O)c2cc(C(=O)NCC3CCCO3)ccc2Cl)c(=O)n(-c2ccccc2)n1C (configuration not stated)
EC50 [1]: 1.88 µM (active)

CCOC(=O)C1(CCc2ccccc2)CCN(Cc2cccc3c2OCO3)CC1
EC50 [1]: 0.668 µM (active)

CNCc1c(OCc2ccccc2)ccc2ccccc12
EC50 [1]: 3.76 µM (active)

COc1ccc(C)cc1-n1nnnc1SCn1nnc2ccccc2c1=O
IC50 [7]: > 66 µM (inactive)
IC50 [8]: > 66 µM (inactive)

Cc1cccc(Cn2c(C(C)(C)C)cc3cccnc32)c1
EC50 [1]: 0.531 µM (active)

CN(CC(=O)Nc1cccc(F)c1)C(=O)CNS(=O)(=O)c1ccc(N(C)C)c([N+](=O)[O-])c1
IC50 [7]: > 66 µM (inactive)
IC50 [8]: > 66 µM (inactive)

Cc1c(CCOC(=O)C23CC4CC(CC(C)(C4)C2)C3)sc[n+]1CC(=O)c1ccccc1
AC50 [9]: 20.5 µM (active)
AC50 [10]: 8.8 µM (active)
AC50 [11]: 5.26 µM (active)
AC50 [12]: 5.44 µM (active)
AC50 [13]: 1.96 µM (active)

CCOC(=O)c1cnc(Nc2nc3ccccc3o2)nc1CSC(=S)N(CC)CC
CC50 [5]: 28 µM (active)
EC50 [14]: 0.17 µM (active)
EC50 [15]: > 60 µM (not active)

CN1CCN(C2=C(Cl)C(=O)N(CCc3ccccc3)C2=O)CC1
IC50 [7]: > 66 µM (inactive)
IC50 [8]: 49.1 µM (inactive)

COc1ccc(S(=O)(=O)N2CCC[C@H]2C(=O)NC2=NCCS2)cc1
AC50 (Cytochrome P450 2C9): inconclusive
AC50 (Cytochrome P450 3A4): 17.8 µM (inconclusive)
AC50 (Cytochrome P450 2C19): 35.5 µM (inconclusive)

CC(=O)N1CCc2cc(S(=O)(=O)N3CCN(c4ccc(Cl)cc4)CC3)ccc21
IC50 (HEK293): > 20 µM (inactive)
IC50 (Tumor necrosis factor): > 20 µM (inactive)

CCOC(=O)C1(Cc2cccc(OC)c2)CCN(Cc2ccc(OC)c(O)c2)CC1
EC50 [1]: 0.944 µM (active)

CC1(C)CC2=Nc3ccccc3NC(c3ccccc3F)C2=C(O)C1 (configuration not stated)
IC50 [7]: > 66 µM (inactive)
IC50 [8]: > 66 µM (inactive)

Cc1noc(C)c1S(=O)(=O)Nc1ccc2c(c1)CC(=O)N([C@H](C)CO)C[C@@H](C)[C@@H](CN(C)Cc1ccc(C(=O)Nc3ccccc3N)cc1)O2
AC50 [16]: 3.1 µM (active)

Cc1noc(C)c1S(=O)(=O)Nc1ccc2c(c1)CC(=O)N([C@H](C)CO)C[C@@H](C)[C@H](CN(C)Cc1ccc(Cl)c(Cl)c1)O2
AC50 [16]: 6.32 µM (active)

Cc1ccc(S(=O)(=O)Nc2ccc3c(c2)CC(=O)N([C@@H](C)CO)C[C@@H](C)[C@@H](CN(C)Cc2ccc(-c4ccccc4)cc2)O3)cc1
AC50 [16]: 3.03 µM (active)

C[C@H]1CN([C@@H](C)CO)C(=O)c2cccc(NS(=O)(=O)c3ccccc3)c2O[C@H]1CN(C)Cc1ccc(Oc2ccccc2)cc1
AC50 [16]: 6.61 µM (active)

C[C@@H]1CCCCO[C@H](CN(C)CC2CCCCC2)[C@@H](C)CN([C@H](C)CO)C(=O)c2cc(NC(=O)Nc3ccc(F)cc3)ccc2O1
AC50 [16]: 2.33 µM (active)

COc1ccc(CNC(=O)N(C)C[C@H]2OCc3ccccc3-c3c(n(C)c4ccccc34)C(=O)N([C@H](C)CO)C[C@@H]2C)cc1
AC50 [9]: 60.8 µM (active)
AC50 [10]: < 0.26 µM (active)
AC50 [12]: < 0.26 µM (active)
AC50 [13]: < 0.26 µM (active)

CN1CC(c2ccc(Cl)c(Cl)c2)[C@@]2(COc3ccccc3C2=O)[C@@]12C(=O)Nc1ccccc12 (some centres not stated)
AC50 [9]: 45.7 µM (active)
AC50 [10]: 31.3 µM (active)
AC50 [11]: 14.7 µM (active)
AC50 [12]: 9.1 µM (active)
EC50 (Streptococcus): > 150 µM (not active)
EC50 (Streptokinase A): 1.55 µM (active)
EC50 [17]: 2.96 µM (active)
AC50 [13]: 9.06 µM (active)

COc1ccc(CNc2ncnc3ccc(-c4ccccc4CN(C)C)cc23)c(OC)c1
AC50 (Cytochrome P450 2C9): inconclusive
AC50 (Cytochrome P450 1A2): 31.6 µM (inconclusive)
